Assay results reported in patent US4847302A, “Use of certain compounds in livestock food as growth promotants for better feed utilization and improved carcass composition” (Merck & Co., Inc., priority 1988, dated 1989).
Where two headings read alike, the source gives them in different places.

How the values were obtained:
[1] = system: Isolated Swine Adipocytes; experiment: Stimulation of lipolysis (glycerol production) in isolated swine adipocytes; format: cell-based; details: for activation at 0.01 µM / activation at 0.05 µM / activation at 0.25 µM: Sus scrofa, Adipocyte, 2 h
Description: (§1) Fat was collected from freshly killed animals as follows: epididymal and perirenal fat from 150 to 200 g male rates; perirenal fat from 20 to 25 kg whether lambs, and perirenal and omental fat from 35 to 50 kg gilts. Immediately after collection, fat was placed in a siliconized beaker (all glassware was siliconized) containing Krebs-Ringer bicarbonate solution (KRB; pH 7.4) at 37° C. Fat was transferred to a clean beaker and finely chopped with scissors. Chopped fat was then used as such (whole adipose preparation) or treated with collagenase (isolated adipocytes).
(§2) Chopped fat was placed in a shaker containing 70 ml cell dispersion medium (CDM; 5 mM glucose, 0.1% collagenase, 4% bovine serum albumin (BSA), in KRB) and incubated at 37° C. for 1 hour with gentle shaking. Fat was then filtered to remove clumps and washed 4 times with washing medium (WM; 2.5 mM glucose, 1% BSA, in KRB) and 1 time with final suspension medium (FSM; 2.5 mM glucose, 2% essentially fatty acid free BSA, in KRB). Isolated adipocytes were then resuspended in the required amount of FSM (1 ml/flask, 3 flasks/treatment).
(§3) Whole adipose tissue from the rat (0.3 ml) or isolated adipocytes from sheep or swine (1 ml) were placed in plastic scintillation vials containing FSM (1.7 or 1 ml, respectively) and test compounds, and incubated at 37° C. for 2 hours. […] Isoproterenol, at the same concentrations, was used as a positive control. After incubation, media was removed and assayed for glycerol by a fluorometric modification of the method of Wieland (1974. Glycerol UV-method. pp. 1404. In: Bergmeyer (Ed.) Methods of Enzymatic Analysis. Verlag Chemie Weinham, Academic Press, New York).

[2] = system: Isolated Chicken Hepatocytes; experiment: Inhibition of lipogenesis (14C acetate incorporation) in isolated chicken hepatocytes; format: cell-based; details: Gallus gallus, Hepatocyte, 2 h
Description: Determination of anti-lipogenic activity in hepatocytes
Hepatocytes were isolated from chicken liver using the procedure for adipocytes and incubated for 2 hours at 37° C. in the presence of ^14 C acetate and test compounds. […] Isoproterenol, at the same concentrations, was used as a positive control. After incubation, 8 ml Doles reagent (isopropanol:hexane:H2 SO4, 40:10:1) was added and incubation vials were shaken at room temperature for 30 minutes. Vial contents were poured into 50 ml screw-cap tubes. Vials were then rinsed with 6 ml hexane which was poured into the appropriate 50 ml tube. Tubes were shaken by hand, 10 ml H2 O was added, and tubes were shaken again. After phase separation, 2 ml of the upper (hexane) phase was removed to scintillation vials. Hexane was evaporated by a gentle air flow and the remaining lipids were resuspended in 10 ml Scinti Verse II. ^14 C was counted in a Packard liquid scintillation counter. Data are reported as CPM of ^14 C acetate incorporated into total lipids.

[3] = Baker et al., Fed. Proc. 42; some species of food livestock; cited from earlier work
[4] = Growth promoting activity / feed utilization in livestock (general statements); format: in vivo; details: poultry, sheep or swine
[5] = Growth, feed conversion and carcass composition of broilers raised in floor pens for 7 weeks; format: in vivo; details: 0.5 ppm in diet
Description: Compound V (bitolterol) was compared to clenbuterol for effects on growth, feed conversion and carcass composition of broilers raised in floor pens for 7 weeks. […] Bitolterol at the highest dose improved rate of gain 2.6% (P 0.01), feed conversion 3.8% (P 0.05) and carcass protein 4.9% (P 0.10).
Clenbuterol at 0.5 ppm in the diet was administered for 7 weeks to one group and only during the last 4 weeks to another group. […] Clenbuterol given for 7 weeks improved feed conversion 3.5% (P 0.05) and appeared to improve (not significant) rate of gain 0.4%, carcass weight 0.7% and carcass protein 4.0% and to decrease (not significant) carcass fat 7.1%.

[6] = In vivo testing in rats: growth, feed conversion and carcass composition; design: species or system rat (male Charles River CD); details: in diet; for Gain / Feed Intake / Weight / Carcass Composition % of Change over Control, Fat / Carcass Composition % of Change over Control, Protein: dose equivalent to 20 ppm clenbuterol (clenbuterol: 10)
Description: Eighty intact, male Charles River CD rats, 75-90 g, were housed and maintained on rat chow and water ad libitum. After four days acclimation ten rats per group were randomized by weight to treatment and pen. Compounds to be tested were premixed and added to ground rat chow using doses equivalent to 20 ppm of clenbuterol on a molecular weight basis. It had previously been determined 10 ppm of clenbuterol was the minimum dose needed to give maximum improvements in gain and feed conversion. Therefore, the results of any compound tested should cause responses similar to clenbuterol if the compound has half or more the activity of clenbuterol.

[7] = system: Rat Adipose Tissue; experiment: Stimulation of lipolysis (glycerol production) in chopped rat adipose tissue; format: cell-based; details: Rattus norvegicus, 2 h
Description: as §1
as §3, with “York). […]” for “York).”

[8] = system: Isolated Ovine Adipocytes; experiment: Stimulation of lipolysis (glycerol production) in isolated ovine adipocytes; format: cell-based, sheep
Description: as §1, §2, §3

[9] = read-out: percent increase compared to control, glycerol production, Test 1
[10] = read-out: percent increase compared to control, glycerol production, Test 2
[11] = read-out: percent change compared to control, 14C acetate incorporation in fatty acids, Test 1
[12] = read-out: percent change compared to control, 14C acetate incorporation in fatty acids, Test 2

Molecule CC(C)(C)NCC(O)c1cc(Cl)c(N)c(Cl)c1 (stereo not shown) [Clenbuterol, clenbuterol] has an activation at 0.01 µM [1, 9] of 27%, an activation at 0.05 µM [1, 9] of -20% and an activation at 0.25 µM [1, 9] of -27%. For the same molecule, the activation at 0.01 µM [1, 10] was 0%, the activation at 0.05 µM [1, 10] was -20% and the activation at 0.25 µM [1, 10] was 4%. For the same molecule, the “lipolytic activity (in words)” value ([1]; isolated swine adipocytes) was “lack of activity”, the inhibition at 0.01 µM [2, 11] was 4.2% and the inhibition at 0.05 µM [2, 11] was 16.4%. The inhibition at 0.25 µM [2, 11] was 24.6%, the inhibition at 0.01 µM [2, 12] was 8% and the inhibition at 0.05 µM [2, 12] was 18%. The inhibition at 0.25 µM [2, 12] was 16%, the “enhancement of food utilization and change of carcass composition” value [3] was “functions in this way” and the “activity compared with other compounds in poultry, sheep or swine” value [4] was “not as active as other compounds in poultry, sheep or swine”. The “feed conversion and carcass protein, 7 weeks versus 4 weeks of administration” value [5] was “slightly more effective”, the “improvement of feed conversion” value ([5]; 7 weeks, P 0.05) was 3.5% and the “decrease of carcass fat” value ([5]; 7 weeks, not significant) was 7.1%. For the same molecule, the “improvement of carcass protein” value ([5]; 7 weeks, not significant) was 4.0%, the “improvement of carcass weight” value ([5]; 7 weeks, not significant) was 0.7% and the “improvement of rate of gain” value ([5]; 7 weeks, not significant) was 0.4%. For the same molecule, the Gain ([6]; Test 1, control 7.3) was 7.8 g/day, the “Feed Intake” value ([6]; Test 1, control 18.6) was 19.2 g/day and the Weight ([6]; Test 1, control 191.8) was 198.6 g. The “Carcass Composition % of Change over Control, Fat” value ([6]; Test 1) was -11.3%, the “Carcass Composition % of Change over Control, Protein” value ([6]; Test 1) was 11.2% and the Gain ([6]; Test 2, control 7.5) was 8.2 g/day. The “Feed Intake” value ([6]; Test 2, control 19.3) was 19.9 g/day, the Weight ([6]; Test 2, control 202.3) was 216.9 g and the “Carcass Composition % of Change over Control, Fat” value ([6]; Test 2) was -11.9%. The “Carcass Composition % of Change over Control, Protein” value ([6]; Test 2) was 4.3%, the “minimum dose needed to give maximum improvements in gain and feed conversion” value ([6]; previously determined) was 10 ppm and the activation at 0.01 µM [7, 9] was 12%. For the same molecule, the activation at 0.05 µM [7, 9] was 26%, the activation at 0.25 µM [7, 9] was 21% and the activation at 0.01 µM [7, 10] was 10%. For the same molecule, the activation at 0.05 µM [7, 10] was 10%, the activation at 0.25 µM [7, 10] was 16% and the activation at 0.05 µM ([8]; Ovis aries, Adipocyte, 2 h, read-out: percent increase compared to control, glycerol production, Test 1) was 240%. It also gave an activation at 0.25 µM ([8]; Ovis aries, Adipocyte, 2 h, read-out: percent increase compared to control, glycerol production, Test 1, 0.25 μM) of 325%, an activation at 0.01 µM ([8]; Ovis aries, Adipocyte, 2 h, read-out: percent increase compared to control, glycerol production, Test 2, 0.01 μM) of 186% and an activation at 0.05 µM ([8]; Ovis aries, Adipocyte, 2 h, read-out: percent increase compared to control, glycerol production, Test 2) of 857%. For the same molecule, the “percent increase compared to control, glycerol production” value ([8]; Test 1, 0.01 μM) was “inactive”.
